pIC50: −log10 of the molar value. Each block holds one molecule with its values, some of them ahead of it.
Assays:
[1] = tested on: SkCaP-1 (human PCa xenograft); assay: SkCaP-1 human PCa xenograft in NSG mice; format: in vivo; details: 30 mg/kg i.p. daily vs DMSO control (FIG. 4)
Description: Intact male NSG mice (3-4 per group) bearing SkCaP-1 (human PCa xenograft) were treated with 30 mg/kg Compound 4 (a tasquinimod compound) i.p. daily, or a control (DMSO).

FAP [2] = target: T1, FAP (Homo sapiens, UniProt Q12884); assay: FAP-dependent activation of Compound 4 in vitro (HPLC); format: biochemical; parameters: purchased R&D Systems; details: buffer +/- rhFAP (20 nM) overnight (~16 hrs), 37° C., HPLC (FIG. 10)
T1 sequence (Q12884 1-760): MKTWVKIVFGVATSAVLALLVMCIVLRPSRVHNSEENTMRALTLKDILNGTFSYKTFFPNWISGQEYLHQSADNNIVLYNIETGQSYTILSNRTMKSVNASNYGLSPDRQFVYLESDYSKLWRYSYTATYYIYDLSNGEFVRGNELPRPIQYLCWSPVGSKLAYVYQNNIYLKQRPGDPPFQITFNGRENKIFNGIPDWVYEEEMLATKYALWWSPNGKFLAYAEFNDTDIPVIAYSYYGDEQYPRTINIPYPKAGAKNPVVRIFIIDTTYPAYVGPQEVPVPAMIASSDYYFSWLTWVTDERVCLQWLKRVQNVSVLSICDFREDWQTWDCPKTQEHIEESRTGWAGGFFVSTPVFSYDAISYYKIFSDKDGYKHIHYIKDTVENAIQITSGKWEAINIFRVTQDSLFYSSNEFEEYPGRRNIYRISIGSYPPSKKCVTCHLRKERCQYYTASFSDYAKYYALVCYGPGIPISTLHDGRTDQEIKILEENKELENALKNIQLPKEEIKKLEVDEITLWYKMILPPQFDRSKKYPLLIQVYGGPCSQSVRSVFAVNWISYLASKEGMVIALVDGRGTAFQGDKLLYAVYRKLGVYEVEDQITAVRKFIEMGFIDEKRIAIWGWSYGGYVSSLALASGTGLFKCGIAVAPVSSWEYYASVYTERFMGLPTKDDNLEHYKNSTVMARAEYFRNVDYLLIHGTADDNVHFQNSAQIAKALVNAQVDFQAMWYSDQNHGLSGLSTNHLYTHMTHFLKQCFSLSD
Description: Compound 4 was incubated in buffer +/- rhFAP (20 nM) overnight (~16 hrs), mixing at 37° C. Aliquots taken at indicated time points and the presence of Compound 4 (prodrug) and Tasquinimod (TasQ) were quantified via HPLC.

[3] = tested on: panel of benign and malignant cells; assay: MTT assay, potency of niclosamide against a panel of cells; format: cell-based; details: all cells tested (FIG. 3A)
Description: FIGS. 3A-3D show characterization data for a compound disclosed herein (Compound 1).

[4] = tested on: mammalian cells such as mCRPCs, TAMs, MSCs, and CAFs; details: all cells, including mammalian cells; read-out: LC50 (the source's name); cited from earlier work
[5] = in vivo, 40 mg/kg
Description: (§2) Column: Luna 2.5u C18, 100 mm ×2.5 mm (Phenomenex 00D-4446-B0). Mobile phase: A = 0.5% acetonitrile/H2O/0.1% formic acid; B= 95% acetonitrile/H2O/0.1% formic acid; Flow = 150 µL/min.

FAP [6] = target: T1, FAP; assay: Kinetics of FAP-dependent activation in vitro +/- BSA (HPLC); format: biochemical
Description: Compound 1 was incubated in Buffer (50 mM Tris-HCl, pH 7.4; 150 mM NaCI) +/-0.4% BSA in glass vials, mixing at 37° C. Aliquots were taken at indicated time points and the presence of Compound 1 (prodrug) and Niclosamide (active compound) were quantified via HPLC.

PREP = target: T2, PREP (Homo sapiens, UniProt P48147); assay: LC-MS assay of niclosamide production from prodrug with PREP; format: biochemical; details: 24 hrs
T2 construct: purchased R&D Systems
T2 sequence (P48147 1-710): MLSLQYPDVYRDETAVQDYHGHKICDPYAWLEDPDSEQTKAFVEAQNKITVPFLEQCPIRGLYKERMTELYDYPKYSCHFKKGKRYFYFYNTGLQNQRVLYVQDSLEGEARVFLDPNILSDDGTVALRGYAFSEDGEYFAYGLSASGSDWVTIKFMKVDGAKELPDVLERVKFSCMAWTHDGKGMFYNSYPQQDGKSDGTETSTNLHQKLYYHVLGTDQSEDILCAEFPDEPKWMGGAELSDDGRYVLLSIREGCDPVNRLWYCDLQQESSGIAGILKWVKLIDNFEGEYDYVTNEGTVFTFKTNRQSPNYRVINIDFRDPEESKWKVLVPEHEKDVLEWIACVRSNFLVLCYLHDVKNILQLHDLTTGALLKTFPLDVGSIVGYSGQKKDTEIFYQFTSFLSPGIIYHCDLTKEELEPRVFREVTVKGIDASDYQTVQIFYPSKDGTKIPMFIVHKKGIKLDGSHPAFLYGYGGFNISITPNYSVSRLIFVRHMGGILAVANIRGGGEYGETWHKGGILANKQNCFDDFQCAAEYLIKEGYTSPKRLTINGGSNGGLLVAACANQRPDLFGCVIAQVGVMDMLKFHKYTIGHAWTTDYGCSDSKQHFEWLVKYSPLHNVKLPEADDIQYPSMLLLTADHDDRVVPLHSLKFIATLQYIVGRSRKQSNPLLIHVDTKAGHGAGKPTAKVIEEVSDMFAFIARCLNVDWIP
Description: (§1) In vitro Characterization of Enzymatic Activation Kinetics and FAP-specific Cellular UptakelCytotoxicity: Kinetics of compound activation by FAP is performed as previously described (Aggarwal et al. Biochemistry 47, 1076-1086 (2008); Denmeade et al. Sci TranslMed 4, 140ra186 (2012)). Briefly, increasing concentrations of the test compound (0-10 µM) are incubated with rhFAP, rhDPPIV, or rhPREP [20 nM] (R&D Systems) at 37° C. while shaking. Aliquots are taken to determine concentrations of the test compound and active drug compound at time points ranging from 0-24 hrs using the LCMS method described above in Example 4. Kinetic constants (Km and kcat) are calculated on the basis of the rate of hydrolysis (v) during the linear phase using Michaelis-Menten plots (v vs [S]) with nonlinear regression analysis. Cellular uptake in the presence or absence of rhFAP is determined in cell lysates using the same methodology. Cytotoxicity is determined via MTT in the presence or absence of rhFAP and/or a FAP-specific inhibitor (Jansen et al. J Med Chem 57, 3053-3074 (2014).

FAP [7] = target: T1, FAP; assay: LC-MS assay of FAP-dependent production of niclosamide from prodrug; format: biochemical; parameters: purchased R&D Systems
Description: as §1

LNCaP cells = assay: Seahorse XF Cell Mito Stress Test; format: cell-based
Description: A mitochondrial stress test assay was performed using the Agilent Seahorse XF Cell Mito Stress Test Kit (catalog no. 103015-100), a widely-used assay for assessing mitochondrial function. Compound 1 or niclosamide (1 µM) was incubated overnight at 37° C. shaking, with or without FAP (20 nM) in Seahorse Media. This mixture was added to LNCaP cells (60 k cells) the next day, immediately prior to starting the assay (0.5 µM final concentration).

DPPIV = target: T3, DPPIV (Homo sapiens, UniProt P27487); assay: LC-MS assay of niclosamide production from prodrug with DPPIV; format: biochemical; details: 24 hrs
T3 construct: purchased R&D Systems
Description: as §1

Myc-CaP-CR tumors = assay: Abiraterone-resistant CRPC tumor model (Myc-CaP-CR) in vivo
Description: Animals were treated with either abiraterone at 10 mg/kg by daily oral gavage alone or together with Compound 1 at 50 mg/kg IV on d0 and d4. Toxicity was monitored by measuring body weight and body score (i.e., appearance, lethargy, etc.).

CWR22-H tumors = assay: Castration-resistant CWR22-H tumors in castrated male NSG mice; format: in vivo
Description: Castrated male NSG mice were inoculated with castration-resistant CWR22-H tumors in 50% Matrigel. When tumors reached ~0.2 cc, treatment with Compound 1 (40 mg/kg) via intraperitoneal (I.P.) injection was initiated. Tumor volumes and body weights were monitored 2x/wk. […] Treatment was well-tolerated as documented by weight loss of <20%.

[8] = Pharmacokinetics: plasma, liver, kidney, smooth muscle levels after Compound 1 dosing
Description: as §2

T3 sequence (P27487 whole entry): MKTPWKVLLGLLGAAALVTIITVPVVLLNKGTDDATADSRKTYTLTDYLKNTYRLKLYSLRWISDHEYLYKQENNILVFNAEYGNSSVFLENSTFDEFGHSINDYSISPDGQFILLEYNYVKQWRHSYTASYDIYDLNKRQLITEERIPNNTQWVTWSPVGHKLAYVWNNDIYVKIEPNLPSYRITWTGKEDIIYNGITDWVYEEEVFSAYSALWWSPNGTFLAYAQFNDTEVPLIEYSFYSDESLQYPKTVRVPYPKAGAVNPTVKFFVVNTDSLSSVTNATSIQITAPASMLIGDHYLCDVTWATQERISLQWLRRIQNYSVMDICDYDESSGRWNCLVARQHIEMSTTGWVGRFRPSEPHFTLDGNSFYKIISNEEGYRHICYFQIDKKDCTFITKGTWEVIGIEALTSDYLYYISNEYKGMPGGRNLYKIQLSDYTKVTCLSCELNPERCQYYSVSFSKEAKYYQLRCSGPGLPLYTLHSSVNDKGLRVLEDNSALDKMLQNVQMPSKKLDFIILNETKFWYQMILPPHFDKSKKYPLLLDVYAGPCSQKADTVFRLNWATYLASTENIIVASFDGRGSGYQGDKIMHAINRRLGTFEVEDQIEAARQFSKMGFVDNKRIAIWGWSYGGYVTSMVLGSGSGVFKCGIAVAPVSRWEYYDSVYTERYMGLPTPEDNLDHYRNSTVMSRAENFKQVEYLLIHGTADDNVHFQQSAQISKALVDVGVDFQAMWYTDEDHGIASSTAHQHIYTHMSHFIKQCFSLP

FAP-dependent activation to tasquinimod (FAP [2]): confirm FAP-dependent activation
Structure (SMILES): COc1cccc2c1c(OCc1ccc(NC(=O)C3CC(F)(F)CN3C(=O)CNC(=O)c3ccnc4ccccc34)cc1)c(C(=O)N(C)c1ccc(C(F)(F)F)cc1)c(=O)n2C (stereo not drawn) [Compound 4]
tumor growth (tumor volume) [1]: decreases tumor growth compared to the control

Structure (SMILES): O=C(Nc1ccc([N+](=O)[O-])cc1Cl)c1cc(Cl)ccc1O [Niclosamide, niclosamide]
pIC50 [3]: > 6.30
CC50 [4]: < 1000 nM
niclosamide in liver as % of Compound 1 concentrations [5]: 25-50%
niclosamide in plasma as % of Compound 1 dose [5]: < 10%
niclosamide in smooth muscle as % based on liver concentrations [5]: < 1%
niclosamide in smooth muscle as % of administered dose based on plasma concentrations [5]: 5-10%
niclosamide level in plasma [5]: < 1 µM
niclosamide level in smooth muscle [5]: < 1 µM

production of active niclosamide (PREP): no production observed
production of active niclosamide (FAP [7]; absence of enzyme, 24 hrs): no production observed
increase in active niclosamide (FAP [7]; with FAP, over 24 hrs (FIG. 3B)): ~ 20 fold
production of active niclosamide (DPPIV): no production observed
weight loss (CWR22-H tumors; 40 mg/kg daily IP): < 20%
plasma level as % of the IV dose ([8]; 40 mg/kg IP): ~ 50%
kidney level as % of the IV dose ([8]; 40 mg/kg IP, at ~4 hrs): ~ 30%
liver level as % of the IV dose ([8]; 40 mg/kg IP, at ~4 hrs): ~ 50%
converted to niclosamide (kidney) ([8]; Compound 1 administered IV or IP): < 10%
stability of the prodrug as a systemic therapy ([8]; in vivo, from tissue niclosamide levels): good stability
concentration at 1 hr ([8]; kidney, intravenous, 40 mg/kg): ~50 µM
concentration at 1 hr ([8]; kidney, oral, 40 mg/kg): ~1 µM
Kp at 1 hr ([8]; liver, intravenous, 40 mg/kg): 10 to 15
concentration at 1 hr ([8]; liver, intravenous, 40 mg/kg): ~100 µM
concentration at 1 hr ([8]; liver, oral, 40 mg/kg): ~10 µM
bioavailability ([8]; liver, po, 40 mg/kg): ~10%
half-life ([8]; plasma, intravenous, 40 mg/kg): 3 to 4 h
Cmax ([8]; plasma, iv, 40 mg/kg): ~7 µM
Cmax ([8]; plasma, po, 40 mg/kg): ~0.4 µM
bioavailability ([8]; plasma, po, 40 mg/kg): 5 to 10%
Structure (SMILES): O=C(Nc1ccc([N+](=O)[O-])cc1Cl)c1cc(Cl)ccc1OCc1ccc(NC(=O)C2CC(F)(F)CN2C(=O)CNC(=O)c2ccnc3ccccc23)cc1 (stereo not drawn) [Compound 1]
effect of BSA on production of the active compound (FAP [6]; 0.4% BSA): BSA inhibits production of the active compound
prodrug and active compound over time (FAP [6]; buffer pH 7.4, 37° C., HPLC (FIG. 5)): time-dependent increase in the active compound and concomitant decrease in the prodrug over time
baseline ECAR (LNCaP cells; activated by FAP): already at maximum
oxygen consumption rate (OCR), mitochondrial uncoupling (LNCaP cells; activated by FAP (20 nM) overnight, 0.5 µM final (FIG. 6)): uncouples mitochondria
extracellular acidification rate (ECAR) on oligomycin addition (LNCaP cells; activated by FAP (FIG. 7)): does not change with the addition of oligomycin
non-mitochondrial respiration (LNCaP cells; activated by FAP, after rotenone and antimycin A): no change in non-mitochondrial respiration
toxicity (body weight and body score) (Myc-CaP-CR tumors; Compound 1 50 mg/kg IV d0 and d4 together with abiraterone 10 mg/kg (FIG. 3D)): no evidence of toxicity
anti-tumor efficacy (Myc-CaP-CR tumors; Compound 1 50 mg/kg IV d0 and d4 together with abiraterone 10 mg/kg daily oral gavage (FIG. 3C)): significant anti-tumor efficacy
anti-tumor activity (tumor volume) (CWR22-H tumors; 40 mg/kg daily IP (FIG. 8)): Anti-tumor activity was observed
